Earlier results as cited in patent publication US10857210B2, “Compositions and methods to promote wound healing” (Wayne State University, priority 2015, dated 2020).

How the values were obtained:
Tet promoter = details: relative to tetracycline

solubility in water: fully soluble in water
Compound: Cc1c2c(c(O)c3c(O)cccc13)C(=O)[C@]1(O)C(=O)C(C(N)=O)=C(O)[C@@H](N(C)C)[C@@H]1C2 [anhydrotetracycline]
concentration that activates the Tet promoter, lower than with tetracycline (Tet promoter): 2 logs
